Assay results published in patent US8802597B2, “Herbicidal pyrimidines” (E I du Pont de Nemours and Company, priority 2003, dated 2014).
Read-outs that look alike come from different tables or passages of the source.

Columns and labels:
Assay type in all cases: in vivo
[1] = test system: morningglory (Ipomoea coccinea); test: Test C pre/postemergence; conditions: Ipomoea; for pest or weed control at 62 g/ha: 62 g ai/ha; for pest or weed control at 125 g/ha: 125 g ai/ha; for pest or weed control at 250 g/ha: 250 g ai/ha; for pest or weed control at 500 g/ha: 500 g ai/ha
Method in brief: (§1)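 Greenhouse pot test: seeds treated preemergence, or plants at 2–18 cm (1- to 4-leaf stage) treated postemergence, with compound in non-phytotoxic solvent plus surfactant. Visual rating versus untreated controls after 12–14 days, scale 0 (no effect) to 100 (complete control); dash means not tested.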

[2] = test system: johnsongrass (Sorghum halepense); test: Test C pre/postemergence; conditions: Sorghum halepense; for pest or weed control at 62 g/ha: 62 g ai/ha; for pest or weed control at 125 g/ha: 125 g ai/ha; for pest or weed control at 250 g/ha: 250 g ai/ha; for pest or weed control at 500 g/ha: 500 g ai/ha
Method in brief: as §1

[3] = test system: common (oilseed) sunflower (Helianthus annuus); test: Test C pre/postemergence; conditions: Helianthus annuus, pre-emergence, Preemergence, read-out: Plant response rating, Sunflower
Method in brief: as §1

[4] = test system: common ragweed (Ambrosia elatior); test: Test C pre/postemergence; conditions: Ambrosia artemisiifolia; for pest or weed control at 62 g/ha: 62 g ai/ha; for pest or weed control at 125 g/ha: 125 g ai/ha; for pest or weed control at 250 g/ha: 250 g ai/ha; for pest or weed control at 500 g/ha: 500 g ai/ha
Method in brief: as §1

[5] = test system: soybean (Glycine max); test: Test C pre/postemergence; conditions: Glycine max; for plant injury at 62 g/ha: 62 g ai/ha; for plant injury at 125 g/ha: 125 g ai/ha; for plant injury at 250 g/ha: 250 g ai/ha; for plant injury at 500 g/ha: 500 g ai/ha
Method in brief: as §1

[6] = test system: pigweed (Amaranthus retroflexus); test: Test C pre/postemergence; conditions: Amaranthus retroflexus; for pest or weed control at 62 g/ha: 62 g ai/ha; for pest or weed control at 125 g/ha: 125 g ai/ha; for pest or weed control at 250 g/ha: 250 g ai/ha; for pest or weed control at 500 g/ha: 500 g ai/ha
Method in brief: as §1

[7] = test system: kochia (Kochia scoparia); test: Test C pre/postemergence; conditions: Bassia scoparia; for pest or weed control at 62 g/ha: 62 g ai/ha; for pest or weed control at 125 g/ha: 125 g ai/ha; for pest or weed control at 250 g/ha: 250 g ai/ha; for pest or weed control at 500 g/ha: 500 g ai/ha
Method in brief: as §1

[8] = test system: yellow nutsedge (Cyperus esculentus); test: Test C pre/postemergence; conditions: Cyperus; for pest or weed control at 62 g/ha: 62 g ai/ha; for pest or weed control at 125 g/ha: 125 g ai/ha; for pest or weed control at 250 g/ha: 250 g ai/ha; for pest or weed control at 500 g/ha: 500 g ai/ha
Method in brief: as §1

[9] = test system: Surinam grass (Brachiaria decumbens); test: Test C pre/postemergence; conditions: Urochloa decumbens; for pest or weed control at 125 g/ha: 125 g ai/ha; for pest or weed control at 500 g/ha: 500 g ai/ha; for pest or weed control at 62 g/ha: 62 g ai/ha; for pest or weed control at 250 g/ha: 250 g ai/ha
Method in brief: as §1

[10] = test system: giant foxtail (Setaria faberii); test: Test C pre/postemergence; conditions: Setaria faberi; for pest or weed control at 125 g/ha: 125 g ai/ha; for pest or weed control at 500 g/ha: 500 g ai/ha; for pest or weed control at 62 g/ha: 62 g ai/ha; for pest or weed control at 250 g/ha: 250 g ai/ha
Method in brief: as §1

[11] = test system: woolly cupgrass (Eriochloa villosa); test: Test C pre/postemergence; conditions: Eriochloa villosa; for pest or weed control at 62 g/ha: 62 g ai/ha; for pest or weed control at 125 g/ha: 125 g ai/ha; for pest or weed control at 250 g/ha: 250 g ai/ha; for pest or weed control at 500 g/ha: 500 g ai/ha
Method in brief: as §1

[12] = test system: chickweed (Stellaria media); test: Test C postemergence; conditions: Stellaria media, post-emergence
Method in brief: as §1

[13] = post-emergence, Postemergence, scale 0 to 100 (0 no effect, 100 complete control), read-out: Morningglory plant response rating
[14] = post-emergence, Postemergence, scale 0 to 100, read-out: Plant response rating, Morningglory
[15] = pre-emergence, Preemergence, scale 0 to 100, read-out: Plant response rating, Morningglory
[16] = post-emergence, Postemergence, scale 0 to 100 (0 no effect, 100 complete control), read-out: Johnsongrass plant response rating
[17] = post-emergence, Postemergence, scale 0 to 100, read-out: Plant response rating, Johnsongrass
[18] = pre-emergence, Preemergence, scale 0 to 100, read-out: Plant response rating, Johnsongrass
[19] = post-emergence, Postemergence, scale 0 to 100 (0 no effect, 100 complete control), read-out: Ragweed plant response rating
[20] = post-emergence, Postemergence, scale 0 to 100, read-out: Plant response rating, Ragweed
[21] = pre-emergence, Preemergence, scale 0 to 100, read-out: Plant response rating, Ragweed
[22] = post-emergence, Postemergence, scale 0 to 100 (0 no effect, 100 complete control), read-out: Soybean plant response rating
[23] = post-emergence, Postemergence, scale 0 to 100, read-out: Plant response rating, Soybean
[24] = pre-emergence, Preemergence, scale 0 to 100, read-out: Plant response rating, Soybean
[25] = post-emergence, Postemergence, scale 0 to 100 (0 no effect, 100 complete control), read-out: Pigweed plant response rating
[26] = post-emergence, Postemergence, scale 0 to 100, read-out: Plant response rating, Pigweed
[27] = pre-emergence, Preemergence, scale 0 to 100, read-out: Plant response rating, Pigweed
[28] = post-emergence, Postemergence, scale 0 to 100 (0 no effect, 100 complete control), read-out: Kochia plant response rating
[29] = post-emergence, Postemergence, scale 0 to 100, read-out: Plant response rating, Kochia
[30] = pre-emergence, Preemergence, scale 0 to 100, read-out: Plant response rating, Kochia
[31] = post-emergence, Postemergence, scale 0 to 100 (0 no effect, 100 complete control), read-out: Nutsedge, Yellow plant response rating
[32] = post-emergence, Postemergence, scale 0 to 100, read-out: Plant response rating, Nutsedge, Yellow
[33] = pre-emergence, Preemergence, scale 0 to 100, read-out: Plant response rating, Nutsedge, Yellow
[34] = post-emergence, Postemergence, scale 0 to 100 (0 no effect, 100 complete control), read-out: Surinam Grass plant response rating
[35] = post-emergence, Postemergence, scale 0 to 100, read-out: Plant response rating, Surinam Grass
[36] = pre-emergence, Preemergence, scale 0 to 100, read-out: Plant response rating, Surinam Grass
[37] = post-emergence, Postemergence, scale 0 to 100 (0 no effect, 100 complete control), read-out: Foxtail, Giant plant response rating
[38] = post-emergence, Postemergence, scale 0 to 100, read-out: Plant response rating, Foxtail, Giant
[39] = pre-emergence, Preemergence, scale 0 to 100, read-out: Plant response rating, Foxtail, Giant
[40] = post-emergence, Postemergence, scale 0 to 100 (0 no effect, 100 complete control), read-out: Cupgrass, Woolly plant response rating
[41] = post-emergence, Postemergence, scale 0 to 100, read-out: Plant response rating, Cupgrass, Woolly
[42] = pre-emergence, Preemergence, scale 0 to 100, read-out: Plant response rating, Cupgrass, Woolly

Nc1nc(C2CC2)nc(C(=O)O)c1Br [Compound 8]
65%: pest or weed control at 62 g/ha ([6]; pre-emergence, Preemergence, scale 0 to 100, 0 no effect, 100 complete control, read-out: Plant response rating, Pigweed) | pest or weed control at 125 g/ha [9, 34] | pest or weed control at 125 g/ha [11, 42]
80%: pest or weed control at 125 g/ha [4, 19] | pest or weed control at 500 g/ha [9, 35]
100%: pest or weed control at 250 g/ha [1, 14] | pest or weed control at 500 g/ha [1, 14] | pest or weed control at 125 g/ha [1, 15] | pest or weed control at 250 g/ha [1, 15] | pest or weed control at 500 g/ha [1, 15] | pest or weed control at 250 g/ha ([3]; 250 g ai/ha, scale 0 to 100) | pest or weed control at 500 g/ha ([3]; 500 g ai/ha, scale 0 to 100) | pest or weed control at 500 g/ha [4, 20] | pest or weed control at 62 g/ha ([4]; pre-emergence, Preemergence, scale 0 to 100, 0 no effect, 100 complete control, read-out: Plant response rating, Ragweed) | pest or weed control at 125 g/ha [4, 21] | pest or weed control at 250 g/ha [4, 21] | pest or weed control at 500 g/ha [4, 21] | plant injury at 250 g/ha [5, 23] | plant injury at 500 g/ha [5, 23] | plant injury at 62 g/ha ([5]; pre-emergence, Preemergence, scale 0 to 100, 0 no effect, 100 complete control, read-out: Plant response rating, Soybean) | plant injury at 125 g/ha [5, 24] | plant injury at 250 g/ha [5, 24] | plant injury at 500 g/ha [5, 24] | pest or weed control at 250 g/ha [6, 26] | pest or weed control at 500 g/ha [6, 26] | pest or weed control at 125 g/ha [7, 28] | pest or weed control at 250 g/ha [7, 29] | pest or weed control at 500 g/ha [7, 29] | pest or weed control at 250 g/ha [7, 30] | pest or weed control at 500 g/ha [7, 30] | pest or weed control at 250 g/ha [8, 33] | pest or weed control at 500 g/ha [8, 33] | pest or weed control at 125 g/ha [9, 36] | pest or weed control at 250 g/ha [9, 36] | pest or weed control at 500 g/ha [9, 36] | pest or weed control at 250 g/ha [11, 42] | pest or weed control at 500 g/ha [11, 42] | pest or weed control at 500 g/ha ([12]; 500 g ai/ha, scale 0 to 100, read-out: Plant response rating, Chickweed)
85%: pest or weed control at 500 g/ha [2, 17] | pest or weed control at 125 g/ha [6, 27] | pest or weed control at 125 g/ha [7, 30] | pest or weed control at 500 g/ha [11, 41]
60%: pest or weed control at 62 g/ha [4, 19] | pest or weed control at 125 g/ha [10, 37] | pest or weed control at 125 g/ha [11, 40]
0%: pest or weed control at 62 g/ha ([2]; pre-emergence, Preemergence, scale 0 to 100, 0 no effect, 100 complete control, read-out: Plant response rating, Johnsongrass) | pest or weed control at 125 g/ha [2, 18] | pest or weed control at 250 g/ha [2, 18] | pest or weed control at 62 g/ha [8, 31] | pest or weed control at 125 g/ha [8, 31] | pest or weed control at 250 g/ha [8, 32] | pest or weed control at 500 g/ha [8, 32] | pest or weed control at 62 g/ha ([8]; pre-emergence, Preemergence, scale 0 to 100, 0 no effect, 100 complete control, read-out: Plant response rating, Nutsedge, Yellow) | pest or weed control at 125 g/ha [8, 33] | pest or weed control at 62 g/ha ([9]; pre-emergence, Preemergence, scale 0 to 100, 0 no effect, 100 complete control, read-out: Plant response rating, Surinam Grass) | pest or weed control at 62 g/ha ([10]; pre-emergence, Preemergence, scale 0 to 100, 0 no effect, 100 complete control, read-out: Plant response rating, Foxtail, Giant) | pest or weed control at 125 g/ha [10, 39] | pest or weed control at 250 g/ha [10, 39] | pest or weed control at 500 g/ha [10, 39] | pest or weed control at 62 g/ha ([11]; pre-emergence, Preemergence, scale 0 to 100, 0 no effect, 100 complete control, read-out: Plant response rating, Cupgrass, Woolly)
40%: pest or weed control at 125 g/ha ([3]; 125 g ai/ha, scale 0 to 100) | pest or weed control at 62 g/ha [9, 34] | pest or weed control at 62 g/ha [10, 37]
35%: pest or weed control at 125 g/ha [2, 16]
90%: pest or weed control at 250 g/ha [6, 27]
30%: pest or weed control at 62 g/ha [2, 16] | pest or weed control at 62 g/ha [11, 40]
20%: pest or weed control at 62 g/ha ([1]; pre-emergence, Preemergence, scale 0 to 100, 0 no effect, 100 complete control, read-out: Plant response rating, Morningglory) | pest or weed control at 500 g/ha [2, 18] | pest or weed control at 62 g/ha ([3]; 62 g ai/ha, scale 0 to 100, 0 no effect, 100 complete control) | pest or weed control at 62 g/ha ([12]; 62 g ai/ha, scale 0 to 100 (0 no effect, 100 complete control), read-out: Chickweed plant response rating)
50%: pest or weed control at 62 g/ha ([7]; pre-emergence, Preemergence, scale 0 to 100, 0 no effect, 100 complete control, read-out: Plant response rating, Kochia)
70%: pest or weed control at 62 g/ha [6, 25] | pest or weed control at 250 g/ha [9, 35] | pest or weed control at 250 g/ha [10, 38]
75%: pest or weed control at 125 g/ha [6, 25] | pest or weed control at 500 g/ha [10, 38] | pest or weed control at 250 g/ha [11, 41] | pest or weed control at 125 g/ha ([12]; 125 g ai/ha, scale 0 to 100, read-out: Plant response rating, Chickweed)
95%: pest or weed control at 62 g/ha [1, 13] | pest or weed control at 125 g/ha [1, 13] | pest or weed control at 250 g/ha [4, 20] | plant injury at 62 g/ha [5, 22] | plant injury at 125 g/ha [5, 22] | pest or weed control at 500 g/ha [6, 27] | pest or weed control at 62 g/ha [7, 28] | pest or weed control at 250 g/ha ([12]; 250 g ai/ha, scale 0 to 100, read-out: Plant response rating, Chickweed)
45%: pest or weed control at 250 g/ha [2, 17]
